Tested on: 327498-153-R-J2-PDC complex spheroid growth, % test/control
Experiment: Anticancer human tumor 327498-153-R-J2-PDC patient-derived uterine carcinosarcoma cell line growth inhibition [Asc]
Conditions: for IC50: curve of first compound; for viability, T/C: stronger effect = lower value
Method in brief: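 Tumor cells were grown as complex spheroids with human endothelial cells (HUVEC) and human mesenchymal stem cells as stroma. Agents were tested alone and in combination, in half-log steps down from the clinical Cmax, or from 10 microM where Cmax was unknown.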

[1] = second compound 0.1 µM, first compound 0.0316 µM
[2] = second compound 0.1 µM, first compound 0.1 µM
[3] = second compound 0.1 µM, first compound 0.316 µM
[4] = second compound 0.1 µM, first compound 1 µM
[5] = second compound 0.1 µM, first compound 3.16 µM
[6] = second compound 0.1 µM, first compound 10 µM
[7] = second compound 0.316 µM, first compound 0.0316 µM
[8] = second compound 0.316 µM, first compound 0.1 µM
[9] = second compound 0.316 µM, first compound 0.316 µM
[10] = second compound 0.316 µM, first compound 1 µM
[11] = second compound 0.316 µM, first compound 3.16 µM
[12] = second compound 0.316 µM, first compound 10 µM
[13] = second compound 1 µM, first compound 0.0316 µM
[14] = second compound 1 µM, first compound 0.1 µM
[15] = second compound 1 µM, first compound 0.316 µM
[16] = second compound 1 µM, first compound 1 µM
[17] = second compound 1 µM, first compound 3.16 µM
[18] = second compound 1 µM, first compound 10 µM
[19] = second compound 3.16 µM, first compound 0.0316 µM
[20] = second compound 3.16 µM, first compound 0.1 µM
[21] = second compound 3.16 µM, first compound 0.316 µM
[22] = second compound 3.16 µM, first compound 1 µM
[23] = second compound 3.16 µM, first compound 3.16 µM
[24] = second compound 3.16 µM, first compound 10 µM
[25] = second compound 10 µM, first compound 0.0316 µM
[26] = second compound 10 µM, first compound 0.1 µM
[27] = second compound 10 µM, first compound 0.316 µM
[28] = second compound 10 µM, first compound 1 µM
[29] = second compound 10 µM, first compound 3.16 µM
[30] = second compound 10 µM, first compound 10 µM
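Further: spheroids exposed to compound for 7 days after 3 days of growth.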
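Wherever viability, T/C is given: 100% = DMSO vehicle control wells.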

## C=C(F)C(=O)N1CCN(c2nc(OCC3CCCN3C)nc3c2CCN(c2cccc4cccc(Cl)c24)C3)CC1CC#N (stereo not given) + Cc1c(S(C)(=O)=O)c(-c2cc(F)cc(N3CCN(c4ccc(NS(=O)(=O)c5ccc(NC(CCN6CCC(C(=O)OCCCP(=O)(O)O)CC6)CSc6ccccc6)c(S(=O)(=O)C(F)(F)F)c5)cc4)CC3)c2)c(-c2ccc(Cl)cc2)n1C(C)C
Second compound 0.1 µM
  IC50: 756 nM
Second compound 0.316 µM
  IC50: 633 nM
Second compound 1 µM
  IC50: 546 nM
Second compound 3.16 µM
  IC50: 512 nM
Second compound 10 µM
  IC50: 1590 nM
[1]
  viability, T/C: 63%
[2]
  viability, T/C: 57.9%
[3]
  viability, T/C: 62.2%
[4]
  viability, T/C: 46.4%
[5]
  viability, T/C: 5.7%
[6]
  viability, T/C: 0.14%
[7]
  viability, T/C: 66.6%
[8]
  viability, T/C: 63.4%
[9]
  viability, T/C: 56%
[10]
  viability, T/C: 43.6%
[11]
  viability, T/C: 3.41%
[12]
  viability, T/C: 0.12%
[13]
  viability, T/C: 63.9%
[14]
  viability, T/C: 58.5%
[15]
  viability, T/C: 55.9%
[16]
  viability, T/C: 40.8%
[17]
  viability, T/C: 3.33%
[18]
  viability, T/C: 0.11%
[19]
  viability, T/C: 68.1%
[20]
  viability, T/C: 60.1%
[21]
  viability, T/C: 50.7%
[22]
  viability, T/C: 41.3%
[23]
  viability, T/C: 2.02%
[24]
  viability, T/C: 0.12%
[25]
  viability, T/C: 164%
[26]
  viability, T/C: 150%
[27]
  viability, T/C: 130%
[28]
  viability, T/C: 82%
[29]
  viability, T/C: 3.02%
[30]
  viability, T/C: 0.19%

## C=CC(=O)N1CCN(c2nc(=O)n(-c3c(C)ccnc3C(C)C)c3nc(-c4c(O)cccc4F)c(F)cc23)C(C)C1 (stereo not given) + Cc1c(S(C)(=O)=O)c(-c2cc(F)cc(N3CCN(c4ccc(NS(=O)(=O)c5ccc(NC(CCN6CCC(C(=O)OCCCP(=O)(O)O)CC6)CSc6ccccc6)c(S(=O)(=O)C(F)(F)F)c5)cc4)CC3)c2)c(-c2ccc(Cl)cc2)n1C(C)C
Second compound 0.1 µM
  IC50: > 10000 nM
Second compound 0.316 µM
  IC50: > 10000 nM
Second compound 1 µM
  IC50: > 10000 nM
Second compound 3.16 µM
  IC50: > 10000 nM
Second compound 10 µM
  IC50: > 10000 nM
[1]
  viability, T/C: 78.9%
[2]
  viability, T/C: 68.5%
[3]
  viability, T/C: 66.7%
[4]
  viability, T/C: 69.5%
[5]
  viability, T/C: 63.4%
[6]
  viability, T/C: 64.8%
[7]
  viability, T/C: 73.5%
[8]
  viability, T/C: 71.6%
[9]
  viability, T/C: 62.4%
[10]
  viability, T/C: 63.2%
[11]
  viability, T/C: 60.2%
[12]
  viability, T/C: 56.4%
[13]
  viability, T/C: 83.2%
[14]
  viability, T/C: 71.9%
[15]
  viability, T/C: 60.7%
[16]
  viability, T/C: 71.2%
[17]
  viability, T/C: 62.1%
[18]
  viability, T/C: 64.7%
[19]
  viability, T/C: 84.6%
[20]
  viability, T/C: 72.4%
[21]
  viability, T/C: 62.4%
[22]
  viability, T/C: 67.4%
[23]
  viability, T/C: 65.4%
[24]
  viability, T/C: 48.3%
[25]
  viability, T/C: 179%
[26]
  viability, T/C: 164%
[27]
  viability, T/C: 164%
[28]
  viability, T/C: 136%
[29]
  viability, T/C: 167%
[30]
  viability, T/C: 151%

## CCN1C(C(=O)NC23CCC(C(=O)O)(CC2)CC3)C(c2cccc(Cl)c2F)C2(C(=O)Nc3cc(Cl)ccc32)C12CCCCC2 (stereo not given) + Cc1c(S(C)(=O)=O)c(-c2cc(F)cc(N3CCN(c4ccc(NS(=O)(=O)c5ccc(NC(CCN6CCC(C(=O)OCCCP(=O)(O)O)CC6)CSc6ccccc6)c(S(=O)(=O)C(F)(F)F)c5)cc4)CC3)c2)c(-c2ccc(Cl)cc2)n1C(C)C
Second compound 0.1 µM
  IC50: 147 nM
Second compound 0.316 µM
  IC50: 136 nM
Second compound 1 µM
  IC50: 106 nM
Second compound 3.16 µM
  IC50: 122 nM
Second compound 10 µM
  IC50: 172 nM
Second compound 0.1 µM, first compound 0.00949 µM
  viability, T/C: 92.5%
Second compound 0.1 µM, first compound 0.03 µM
  viability, T/C: 84.5%
Second compound 0.1 µM, first compound 0.0949 µM
  viability, T/C: 64.8%
Second compound 0.1 µM, first compound 0.3 µM
  viability, T/C: 26.6%
Second compound 0.1 µM, first compound 0.949 µM
  viability, T/C: 6.43%
Second compound 0.1 µM, first compound 3 µM
  viability, T/C: 2%
Second compound 0.316 µM, first compound 0.00949 µM
  viability, T/C: 87.4%
Second compound 0.316 µM, first compound 0.03 µM
  viability, T/C: 89%
Second compound 0.316 µM, first compound 0.0949 µM
  viability, T/C: 64.4%
Second compound 0.316 µM, first compound 0.3 µM
  viability, T/C: 17%
Second compound 0.316 µM, first compound 0.949 µM
  viability, T/C: 8.41%
Second compound 0.316 µM, first compound 3 µM
  viability, T/C: 2.1%
Second compound 1 µM, first compound 0.00949 µM
  viability, T/C: 91.4%
Second compound 1 µM, first compound 0.03 µM
  viability, T/C: 94.5%
Second compound 1 µM, first compound 0.0949 µM
  viability, T/C: 50.6%
Second compound 1 µM, first compound 0.3 µM
  viability, T/C: 17.8%
Second compound 1 µM, first compound 0.949 µM
  viability, T/C: 4.84%
Second compound 1 µM, first compound 3 µM
  viability, T/C: 1.36%
Second compound 3.16 µM, first compound 0.00949 µM
  viability, T/C: 78.9%
Second compound 3.16 µM, first compound 0.03 µM
  viability, T/C: 79%
Second compound 3.16 µM, first compound 0.0949 µM
  viability, T/C: 56.1%
Second compound 3.16 µM, first compound 0.3 µM
  viability, T/C: 23.8%
Second compound 3.16 µM, first compound 0.949 µM
  viability, T/C: 6.76%
Second compound 3.16 µM, first compound 3 µM
  viability, T/C: 1.6%
Second compound 10 µM, first compound 0.00949 µM
  viability, T/C: 166%
Second compound 10 µM, first compound 0.03 µM
  viability, T/C: 162%
Second compound 10 µM, first compound 0.0949 µM
  viability, T/C: 80.9%
Second compound 10 µM, first compound 0.3 µM
  viability, T/C: 23.5%
Second compound 10 µM, first compound 0.949 µM
  viability, T/C: 9.14%
Second compound 10 µM, first compound 3 µM
  viability, T/C: 1.51%

Reference: PubChem BioAssay AID1963424 (Molecular Pharmacology Branch, DTP, NCI, 2024)
